Experimental data taken from PMC4517612 (MedChemComm, 2015).
“And” between values parts separate entries of the source, which are not always exact repeats. Identical values can stand only once. Like-named read-outs stand apart in the source and are kept apart here.

Key:
[1] = test system: CCI model of neuropathic pain (mechanoallodynia) in mice; experiment: Mouse CCI model of neuropathic pain; type: in vivo; conditions: 3 μmol/kg p.o.; for duration of action in vivo (in words) / reversal of mechanoallodynia at 1 h (in words): CCI mice; for reversal of mechanoallodynia at 1 h (in words): 1 h after drug treatment
[2] = test system: CCI model of neuropathic pain (mechanoallodynia) in mice; conditions: 3 μmol/kg p.o., ref Tosh et al.[8], cited from earlier work
hA3AR = target: T1, hA3AR (Homo sapiens, UniProt P0DMS8); experiment: Radioligand binding at hA3AR
T1 sequence (P0DMS8 1-318): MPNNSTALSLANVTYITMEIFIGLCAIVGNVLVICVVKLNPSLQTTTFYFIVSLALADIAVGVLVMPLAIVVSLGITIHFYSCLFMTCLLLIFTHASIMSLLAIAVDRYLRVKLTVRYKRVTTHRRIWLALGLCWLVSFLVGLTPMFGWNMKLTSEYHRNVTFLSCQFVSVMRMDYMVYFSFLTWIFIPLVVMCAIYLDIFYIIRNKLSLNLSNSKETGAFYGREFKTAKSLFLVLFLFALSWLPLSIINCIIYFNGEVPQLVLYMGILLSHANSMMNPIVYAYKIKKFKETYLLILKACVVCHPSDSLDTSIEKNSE

For `CNC(=O)[C@@]12C[C@@H]1[C@@H](n1cnc3c(NC4CCC4)nc(-n4cc(-c5ccc(Cl)s5)nn4)nc31)[C@H](O)[C@@H]2O` [Compound 16], the “duration of action in vivo (in words)” value [1] was “prolonged in activity”.
In the case of `CNC(=O)[C@@]12C[C@@H]1[C@@H](n1cnc3c(NC)nc(C#Cc4ccc(Cl)s4)nc31)[C@H](O)[C@@H]2O` [Compound 2], the “Effect at 3h (% ± SEM), pain protection” value [2] is listed as 83% and 82.8 ± 11.2% and the “Max. effect Emax (% ± SEM), reversal of reduction in PWT of ipsilateral hind paw” value [2] is listed as 93.3 ± 6.7%.
For `CNC(=O)[C@@]12C[C@@H]1[C@@H](n1cnc3c(NC)nc(-n4cc(-c5ccc(Br)s5)nn4)nc31)[C@H](O)[C@@H]2O` [Compound 19], the “reversal of mechanoallodynia at 1 h (in words)” value (“reversal of mechanoallodynia” for short) [1] was “nearly completely reversed”.
For `CNC(=O)[C@@]12C[C@@H]1[C@@H](n1cnc3c(NC)nc(-n4cc(-c5cnn(C)c5)nn4)nc31)[C@H](O)[C@@H]2O` [Compound 11], the “reversal of mechanoallodynia” value [1] was “nearly completely reversed”.
In the case of `CNC(=O)[C@@]12C[C@@H]1[C@@H](n1cnc3c(NCc4cccc(Cl)c4)nc(C#Cc4ccc(F)c(F)c4)nc31)[C@H](O)[C@@H]2O` [Compound 1], the “Effect at 3h (% ± SEM), pain protection” value [2] is given as 24% and 23.7 ± 10.8% and the “Max. effect Emax (% ± SEM), reversal of reduction in PWT of ipsilateral hind paw” value [2] is given as 100 ± 0.0%.
In the case of `CNC(=O)[C@@]12C[C@@H]1[C@@H](n1cnc3c(NC)nc(-n4cc(-c5ncccn5)nn4)nc31)[C@H](O)[C@@H]2O` [Compound 9], the “ligand efficiency with respect to A3AR affinity” value (hA3AR) is reported as 0.27 and the “reversal of mechanoallodynia” value [1] is reported as “nearly completely reversed”.
For `CCNc1nc(-n2cc(-c3ccc(Cl)s3)nn2)nc2c1ncn2[C@H]1[C@H](O)[C@H](O)[C@]2(C(=O)NC)C[C@H]12` [Compound 15], the “reversal of mechanoallodynia” value [1] was “nearly completely reversed”.
With `CNC(=O)[C@@]12C[C@@H]1[C@@H](n1cnc3c(NCc4cccc(Cl)c4)nc(-n4cc(-c5ccc(Cl)s5)nn4)nc31)[C@H](O)[C@@H]2O` [Compound 17] the “duration of action in vivo (in words)” value [1] was “nearly full protection up to 4 h” and the “Effect at 3h (% ± SEM), pain protection” value ([1]; day 7 after CCI, mice, 3 h after administration) was > 90%.
In the case of `CNC(=O)[C@@]12C[C@@H]1[C@@H](n1cnc3c(NCCc4ccccc4)nc(-n4cc(-c5ccc(Cl)s5)nn4)nc31)[C@H](O)[C@@H]2O` [Compound 18], the “duration of action in vivo (in words)” value [1] is reported as “prolonged in activity”.
